# Laboratory results reported in PubChem BioAssay (NCI).
#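 Following 48 hours of exposure in 96-well plates, responses at five concentrations were used to interpolate endpoints linearly. GI50 is the concentration that inhibits growth by half. TGI denotes the concentration required for complete inhibition of growth.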
# Columns and labels:
# Assay in all cases: inhibition of tumour cell growth, NCI panel, 48 h
# OVCAR-5 ovarian = system: OVCAR-5 ovarian
# SK-MEL-28 melanoma = system: SK-MEL-28 melanoma
# LOX IMVI melanoma = system: LOX IMVI melanoma
# SF-295 CNS = system: SF-295 CNS
# UO-31 renal = system: UO-31 renal
# UACC-257 melanoma = system: UACC-257 melanoma
# K-562 leukemia = system: K-562 leukemia
# SK-MEL-5 melanoma = system: SK-MEL-5 melanoma
# HL-60(TB) leukemia = system: HL-60(TB) leukemia
# HCC-2998 colon = system: HCC-2998 colon
# SNB-19 CNS = system: SNB-19 CNS
# PC-3 prostate = system: PC-3 prostate
# TK-10 renal = system: TK-10 renal
# UACC-62 melanoma = system: UACC-62 melanoma
# SW-620 colon = system: SW-620 colon
# NCI-H522 lung = system: NCI-H522 lung
# EKVX NSCLC = system: EKVX NSCLC
# HT29 colon = system: HT29 colon
# NCI-H460 lung = system: NCI-H460 lung
# RXF 393 renal = system: RXF 393 renal
# BT-549 breast = system: BT-549 breast
# HS 578T breast = system: HS 578T breast
# MCF7 breast = system: MCF7 breast
# NCI-H226 lung = system: NCI-H226 lung
# SNB-75 CNS = system: SNB-75 CNS
# A498 renal = system: A498 renal
# OVCAR-4 ovarian = system: OVCAR-4 ovarian
# HOP-92 NSCLC = system: HOP-92 NSCLC
# ACHN renal = system: ACHN renal
# MDA-MB-231 breast = system: MDA-MB-231 breast
# HOP-62 NSCLC = system: HOP-62 NSCLC
# U251 CNS = system: U251 CNS
# SR leukemia = system: SR leukemia
# OVCAR-8 ovarian = system: OVCAR-8 ovarian
# MOLT-4 leukemia = system: MOLT-4 leukemia
# CCRF-CEM leukemia = system: CCRF-CEM leukemia
# DU-145 prostate = system: DU-145 prostate
# KM12 colon = system: KM12 colon
# SF-268 CNS = system: SF-268 CNS
# OVCAR-3 ovarian = system: OVCAR-3 ovarian
# NCI-H23 lung = system: NCI-H23 lung
# CAKI-1 renal = system: CAKI-1 renal
# MALME-3M melanoma = system: MALME-3M melanoma
# 786-0 renal = system: 786-0 renal
# M14 melanoma = system: M14 melanoma
# SK-OV-3 ovarian = system: SK-OV-3 ovarian
# MDA-MB-435 = system: MDA-MB-435
# IGROV1 ovarian = system: IGROV1 ovarian
# T-47D breast = system: T-47D breast
# SF-539 CNS = system: SF-539 CNS
# SK-MEL-2 melanoma = system: SK-MEL-2 melanoma
# RPMI-8226 leukemia = system: RPMI-8226 leukemia
# SN12C renal = system: SN12C renal
# A549 NSCLC = system: A549 NSCLC
# HCT-15 colon = system: HCT-15 colon
# COLO 205 colon = system: COLO 205 colon
# HCT-116 colon = system: HCT-116 colon
# NCI/ADR-RES ovarian = system: NCI/ADR-RES ovarian
smiles,measurement,setting,value
COc1cc(NC(=O)c2cc(O)c(C/C=C(\C)CCC=C(C)C)c(O)c2)cc2c1O[C@]1(C)CC[C@@H](O)C(C)(C)[C@H]1C2,GI50,OVCAR-5 ovarian,4.09 µM
same,TGI,OVCAR-5 ovarian,19.2 µM
same,GI50,SK-MEL-28 melanoma,1430 nM
same,TGI,SK-MEL-28 melanoma,8.25 µM
same,GI50,LOX IMVI melanoma,1350 nM
same,TGI,LOX IMVI melanoma,2890 nM
same,GI50,SF-295 CNS,306 nM
same,TGI,SF-295 CNS,1520 nM
same,GI50,UO-31 renal,2700 nM
same,TGI,UO-31 renal,9.71 µM
same,GI50,UACC-257 melanoma,2820 nM
same,TGI,UACC-257 melanoma,14.3 µM
same,GI50,K-562 leukemia,957 nM
same,TGI,K-562 leukemia,4.88 µM
same,GI50,SK-MEL-5 melanoma,1340 nM
same,TGI,SK-MEL-5 melanoma,2900 nM
same,GI50,HL-60(TB) leukemia,549 nM
same,TGI,HL-60(TB) leukemia,4.88 µM
same,GI50,HCC-2998 colon,2210 nM
same,TGI,HCC-2998 colon,7.22 µM
same,GI50,SNB-19 CNS,1360 nM
same,TGI,SNB-19 CNS,4.46 µM
same,GI50,PC-3 prostate,849 nM
same,TGI,PC-3 prostate,7.16 µM
same,GI50,TK-10 renal,3.42 µM
same,TGI,TK-10 renal,13.7 µM
same,GI50,UACC-62 melanoma,1420 nM
same,TGI,UACC-62 melanoma,3.37 µM
same,GI50,SW-620 colon,2620 nM
same,TGI,SW-620 colon,13.1 µM
same,GI50,NCI-H522 lung,2020 nM
same,TGI,NCI-H522 lung,6.5 µM
same,GI50,EKVX NSCLC,2250 nM
same,TGI,EKVX NSCLC,11.4 µM
same,GI50,HT29 colon,1620 nM
same,TGI,HT29 colon,5.79 µM
same,GI50,NCI-H460 lung,1970 nM
same,TGI,NCI-H460 lung,11.2 µM
same,GI50,RXF 393 renal,209 nM
same,TGI,RXF 393 renal,747 nM
same,GI50,BT-549 breast,841 nM
same,TGI,BT-549 breast,3.55 µM
same,GI50,HS 578T breast,348 nM
same,TGI,HS 578T breast,8.75 µM
same,GI50,MCF7 breast,1080 nM
same,TGI,MCF7 breast,5.73 µM
same,GI50,NCI-H226 lung,3.34 µM
same,TGI,NCI-H226 lung,16.2 µM
same,GI50,SNB-75 CNS,444 nM
same,TGI,SNB-75 CNS,2750 nM
same,GI50,A498 renal,963 nM
same,TGI,A498 renal,7.9 µM
same,GI50,OVCAR-4 ovarian,2570 nM
same,TGI,OVCAR-4 ovarian,12.7 µM
same,GI50,HOP-92 NSCLC,627 nM
same,TGI,HOP-92 NSCLC,3.89 µM
same,GI50,ACHN renal,2210 nM
same,TGI,ACHN renal,10.1 µM
same,GI50,MDA-MB-231 breast,1110 nM
same,TGI,MDA-MB-231 breast,5.04 µM
same,GI50,HOP-62 NSCLC,1580 nM
same,TGI,HOP-62 NSCLC,8.22 µM
same,GI50,U251 CNS,724 nM
same,TGI,U251 CNS,5.33 µM
same,GI50,SR leukemia,418 nM
same,TGI,SR leukemia,4.34 µM
same,GI50,OVCAR-8 ovarian,2580 nM
same,TGI,OVCAR-8 ovarian,14.7 µM
same,GI50,MOLT-4 leukemia,409 nM
same,TGI,MOLT-4 leukemia,5.83 µM
same,GI50,CCRF-CEM leukemia,463 nM
same,TGI,CCRF-CEM leukemia,7.21 µM
same,GI50,DU-145 prostate,2250 nM
same,TGI,DU-145 prostate,12.2 µM
same,GI50,KM12 colon,1630 nM
same,TGI,KM12 colon,4.44 µM
same,GI50,SF-268 CNS,1560 nM
same,TGI,SF-268 CNS,5.74 µM
same,GI50,OVCAR-3 ovarian,1880 nM
same,TGI,OVCAR-3 ovarian,5.49 µM
same,GI50,NCI-H23 lung,2380 nM
same,TGI,NCI-H23 lung,12.8 µM
same,GI50,CAKI-1 renal,1530 nM
same,TGI,CAKI-1 renal,11.8 µM
same,GI50,MALME-3M melanoma,1620 nM
same,TGI,MALME-3M melanoma,5.39 µM
same,GI50,786-0 renal,604 nM
same,TGI,786-0 renal,6.44 µM
same,GI50,M14 melanoma,1480 nM
same,TGI,M14 melanoma,4.09 µM
same,GI50,SK-OV-3 ovarian,1790 nM
same,TGI,SK-OV-3 ovarian,12.9 µM
same,GI50,MDA-MB-435,2010 nM
same,TGI,MDA-MB-435,8.19 µM
same,GI50,IGROV1 ovarian,2450 nM
same,TGI,IGROV1 ovarian,11.1 µM
same,GI50,T-47D breast,1630 nM
same,TGI,T-47D breast,6.95 µM
same,GI50,SF-539 CNS,348 nM
same,TGI,SF-539 CNS,2380 nM
same,GI50,SK-MEL-2 melanoma,1060 nM
same,TGI,SK-MEL-2 melanoma,3.43 µM
same,GI50,RPMI-8226 leukemia,262 nM
same,TGI,RPMI-8226 leukemia,1320 nM
same,GI50,SN12C renal,2900 nM
same,TGI,SN12C renal,12.1 µM
same,GI50,A549 NSCLC,1980 nM
same,TGI,A549 NSCLC,6.66 µM
same,GI50,HCT-15 colon,2090 nM
same,TGI,HCT-15 colon,7.53 µM
same,GI50,COLO 205 colon,2220 nM
same,TGI,COLO 205 colon,6.72 µM
same,GI50,HCT-116 colon,2070 nM
same,TGI,HCT-116 colon,12.3 µM
same,GI50,NCI/ADR-RES ovarian,7.89 µM
same,TGI,NCI/ADR-RES ovarian,44.5 µM
